Data as given in US12090164B2, “Genotype-agnostic rescue of cystic fibrosis with small molecule bicarbonate channels” (The Board of Trustees of the University of Illinois, priority 2017, dated 2024).
“Also recorded” adds a separate entry of the source.

Columns and labels:
[1] = 13C NMR H13CO3- efflux from liposomes; format: biochemical; conditions: 1:1,000 AmB:lipid, vs DMSO or water vehicle
[2] = test system: NuLi (CFTR^+/+) epithelia; assay: ASL pH in non-CF cultured airway epithelia; format: cell-based, human; conditions: apical AmB 2 μM, 48 h
Protocol: Small diameter NuLi, CuFi, and primary cultured epithelia were used for this experiment (0.33 cm^2). The ratiometric pH indicator SNARF-conjugated dextran (Molecular Probes) was used to measure ASL pH. SNARF powder was suspended via sonication in perfluorocarbon (FC-72, Sigma) and distributed onto the apical surface. ASL pH was measured 2 hr later (3, 4, 25). SNARF was excited at 488 nm and emission was recorded at 580 nm and 640 nm using a Zeiss LSM 800 microscope at 40× water immersion for cell line cultures and a Zeiss LSM 510 microscope for primary cultures. To generate a standard curve for pH determination, SNARF was dissolved in colorless pH standards and fluorescence ratios were converted to pH.
Agents tested in this assay were first lyophilized into powder and then suspended in the appropriate volume of perfluorocarbon (FC-72, Sigma) and sonicated for 1 minute to suspend. AmBisome should not be sonicated; instead, the fine powder was suspended by vortexing.
In all experiments, ASL pH of compound-treated epithelia was measured compared the results to vehicle-treated epithelia.
For apical AmB administration, cultured airway epithelia were incubated for 30 min-48 hrs at 37° C. before measurement of ASL pH. For AmB-cholesterol complex and C35deOAmB administration, cultured airway epithelia were incubated for 48 hrs at 37° C. before measurement of ASL pH. […]

Staphylococcus aureus = assay: Direct killing of S. aureus by AmB alone; format: cell-based; conditions: AmB 2 μM alone vs saline
Protocol: Staphylococcus aureus-coated gold grids were used to measure antibacterial activity of airway epithelial cultures (3, 4). Small diameter primary cultured epithelia were used for this experiment (0.33 cm^2). Bacteria-coated gold TEM grids were placed onto the apical surface of airway epithelia for 1 min after 48 hours of perfluorocarbon (FC-72, Sigma), 2 μM AmB, or 2 μM C35deOAmB treatment. As controls, bacteria-coated grids were also placed in saline or AmB in FC-72 laid over saline to simulate the administration method for 1 minute. After removal, bacteria on the grids were assessed for viability using Live/Dead BacLight Bacterial Viability assay (Invitrogen). Viability was determined in 4-6 fields to determine the percentages of dead bacteria.

CuFi-1 epithelia = assay: Lactate dehydrogenase (LDH) cytotoxicity assay; format: cell-based, human; conditions: single AmB treatment, increasing time periods
Protocol: Small diameter CuFi-1 cultured epithelia were used for this experiment (0.33 cm^2). An LDH Cytotoxicity Assay Kit (Cayman Chemical) was used to determine if AmB is toxic to CuFi-1 airway epithelia. Prior to treatment, media was removed from the basolateral side of epithelia and replaced with 500 µL of fresh USG media. Cultured epithelia were then treated with FC-72 vehicle, 2 and 50 μM AmB administered in perfluorocarbon (FC-72, Sigma) for 48 hours, 7 days, or 28 days. 48 hours prior to the end of each experiment time frame, basolateral media was changed again and […] of 10% Triton X-100 solution was added to the apical surface to elicit maximum release. On the day of the experiment, assay reagents were prepared according to kit instructions and 500 µL of USG media was added to three empty wells in a 24-well plate for background control. Culture inserts were removed from the wells and 250 µL of LDH Reaction Solution was added to each well. The plate was then gently shaken on an orbital shaker for 30 minutes at 37° C. Absorbance was read at 490 nm using a plate reader. % cytotoxicity was calculated as follows: […]

[3] = test system: CuFi-1 (ΔF508/ΔF508) epithelia; assay: ASL cation concentrations by ICP-MS; format: cell-based, human; conditions: AmB 2 μM, 48 h, vs FC-72 vehicle
Protocol: Small diameter CuFi-1 cultured epithelia were used for this experiment (0.33 cm^2). 24 hours prior to the start of experiment, the apical side of all cultured epithelia was rinsed three times with 200 μL warm PBS to remove excess mucus. Fresh USG media was added to the basolateral membrane. CuFi-1 epithelia were treated with either perfluorocarbon (FC-72) vehicle or 2 μM AmB suspended in FC-72, and incubated at 37° C. for 48 hours. 0.1 μL capacity microcapillary tubes (Drummond Scientific NC1453214) were placed into 200 μL pipette tips (Denville Scientific P1122). 48 hours after AmB addition, the microcapillary tubes were gently touched around the edge of the apical membrane of each epithelial culture insert until completely filled with ASL via capillary action. […] The sample was then quantitatively transferred to a 15 mL capacity conical vial by washing 3 times with 50 μL molecular biology grade water.
Quantification of sodium, magnesium, potassium, and calcium was accomplished using inductively coupled plasma mass spectrometry (ICP-MS) of acidified samples. […] Quantitative standards were made using a mixed Na, Mg, K, and Ca standard at 100 μg/mL of each element (Inorganic Ventures, Christiansburg, VA, USA) which were combined to create a 100 ng/mL mixed element standard in 1.0% nitric acid (v/v). […]

[4] = test system: CuFi-1 (ΔF508/ΔF508) epithelia; assay: Basolateral to apical H14CO3- transport; format: cell-based, human; conditions: AmB 2 μM basolateral

For C[C@@H]1[C@H](O)[C@@H](C)/C=C/C=C/C=C/C=C/C=C/C=C/C=C/[C@H](O[C@@H]2O[C@H](C)[C@@H](O)[C@H](N)[C@@H]2O)C[C@@H]2O[C@](O)(C[C@@H](O)C[C@@H](O)[C@H](O)CC[C@@H](O)C[C@@H](O)CC(=O)O[C@H]1C)C[C@H](O)[C@H]2C(=O)O [AmB, amphotericin B], the “H^13CO3^− efflux from liposomes” value [1] was “AmB is able to facilitate transmembrane bicarbonate efflux; also recorded: Robust and rapid release; also recorded: caused H^13CO3^− efflux; also recorded: AmB is able to facilitate HCO3^− efflux”, the “ASL pH in non-CF epithelia” value [2] was “No increase in ASL pH was observed” and the “direct antibacterial activity against S. aureus” value (Staphylococcus aureus) was “insensitive to direct killing by AmB; also recorded: does not have antibacterial activity against S. aureus”. For the same molecule, the “cytotoxicity (LDH release, percent of total lysis by Triton X)” value (CuFi-1 epithelia) was “did not cause increased cytotoxicity as compared to vehicle”, the ASL cation concentrations [3] was “unchanged as compared to vehicle-treated controls; also recorded: do not alter major cation concentrations in the ASL” and the “basolateral to apical H^14CO3^− transport, basolateral addition of AmB” value [4] was “did not; also recorded: caused no increase ASL ^14C bicarbonate; also recorded: did not raise ASL pH or increase H^14CO3^− secretion”.
